Assays:
[1] = target: T1, DDB1DB/DCAF15 and RBM39 R1R2 complex (Homo sapiens, UniProt Q14498+Q66K64); test: DCAF15 RBM39 Complex Formation Assay (FRET); format: binding; settings: FRET ratio Em 665/Em 615, incubated overnight at 4° C.
T1 construct: Amino acids 150 to 331 of RBM39 were cloned into pGEX4T3; GST (from vector pGEX4T3); TEV cleavage site (N); made in house; host or cells: DDB1DB/His-DCAF15: baculovirus/Sf9 co-expression; RBM39 R1R2: E. coli (pGEX4T3)
From the text: LANCE Eu-W1024 Anti-6×His and SureLight Allophycocyanin-anti-FLAG antibodies were purchased from Perkin Elmer. Human DDB1DB and His-tagged DCAF15 were co-expressed in baculovirus/sf9 system. While full length DDB1 contains three 7-bladed propellers termed A, B, and C, DDB1DB has only propeller A (amino acids 1 to 395) and C (amino acids 709-1140). The His-tagged DCAF15 contains six histidine residues directly preceding the DCAF15 sequence without any linker. An RBM39 fragment containing RRM1 and RRM2 was expressed in E. coli. Amino acids 150 to 331 of RBM39 were cloned into pGEX4T3 with an N-terminal TEV cleavage site and a C-terminal FLAG tag.
A compound of the present disclosure in DMSO (2 μL) was transferred to a 384-well assay plate. Compound was added in 14 points, 3-fold serial dilution (1 μM to 0.6 pico molar) in DMSO. […] FRET assay buffer (25 mM HEPES, pH 7.5, 100 mM NaCl, […], 0.5 mM TCEP, 0.005% Tween-20, 0.2 nM Eu—W1024 Anti-6×His, 50 nM SureLight Allophycocyanin-anti-FLAG, 20 nM DDB1DB/DCAF15, 50 nM RBM39 R1R2) was added and the resulting solution was incubated overnight at 4° C. The plate was placed in a plate reader (Spark 10) with excitation at 1=340 nm and emissions monitored at 1=665 nm and 1=615 nm, and the FRET ratio (Em 665/Em 615) was determined. Low signal controls containing no compound and high signal controls containing 10 mM indisulam were measured for each plate.
EC50 values were calculated using Dotmatics template equation for 4-parameter fit. Results are expressed as % formation using the following equation: […]

[2] = system: HCT116 human colorectal carcinoma cells; test: CellTiter-Glo Luminescent Cell Viability Assay; format: cell-based; settings: HCT-116, 72 h, 3 days
Experimental: HCT116 human colorectal carcinoma cells were used in these experiments. HCT116 cells were obtained from ATCC. CellTiter-Glo® Luminescent Cell Viability Assay Reagent was obtained from Promega.
About 3,000 cells were seeded into 96-well plate with […] of media (DMEM supplemented with 10% FBS, 100 units penicillin, and […] streptomycin per mL) the day before the experiment. For compound treatment, the master plate was prepared as follows: 100× compound stocks were prepared in a 96-well plate by 1 to 3 serial dilutions of 0.5 mM DMSO stocks. Each master plate contained serial dilution of 8 compounds, including the control compound E7820. […] of 100× compound stock was added to each well of the assay plate to give final concentrations of […]. Each concentration was tested in triplicate. After 3 days, cell viability was determined using CellTiter-Glo Luminescent Cell Viability Assay Reagent following the manufacturer's recommended protocol. Briefly, […] of CellTiter-Glo reagent was added to each well of the assay plate and the contents were mixed for 3 minutes at 600 rpm on a shaker (Thermomixer R). The plate was immediately placed in a plate reader (Synergy 2) and the luminescence signal (0.5 second per well integration time) was determined. IC50 values were calculated using Dotmatics software.

T1 sequence (Q66K64 whole entry, the tested form may be a part): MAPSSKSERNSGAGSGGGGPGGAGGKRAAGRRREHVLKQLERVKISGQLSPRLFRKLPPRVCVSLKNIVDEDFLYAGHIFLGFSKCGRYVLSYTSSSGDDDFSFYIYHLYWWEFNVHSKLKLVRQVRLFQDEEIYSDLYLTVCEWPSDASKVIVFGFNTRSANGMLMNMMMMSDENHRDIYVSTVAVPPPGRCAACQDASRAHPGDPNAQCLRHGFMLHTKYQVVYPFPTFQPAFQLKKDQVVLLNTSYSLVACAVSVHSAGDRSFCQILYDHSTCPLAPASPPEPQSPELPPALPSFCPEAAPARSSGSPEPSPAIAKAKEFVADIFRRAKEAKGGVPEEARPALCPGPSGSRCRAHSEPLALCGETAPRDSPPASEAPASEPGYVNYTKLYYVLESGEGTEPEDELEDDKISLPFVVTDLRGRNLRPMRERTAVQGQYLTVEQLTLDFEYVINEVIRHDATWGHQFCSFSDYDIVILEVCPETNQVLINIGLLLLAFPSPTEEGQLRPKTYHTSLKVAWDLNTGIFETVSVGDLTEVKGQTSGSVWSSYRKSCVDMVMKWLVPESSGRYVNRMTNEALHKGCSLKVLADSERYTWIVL
T1 sequence (Q14498 150-331): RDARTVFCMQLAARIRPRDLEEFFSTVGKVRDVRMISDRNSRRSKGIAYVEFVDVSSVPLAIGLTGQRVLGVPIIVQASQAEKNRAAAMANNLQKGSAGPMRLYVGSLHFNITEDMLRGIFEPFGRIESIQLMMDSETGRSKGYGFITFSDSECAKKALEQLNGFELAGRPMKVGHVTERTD
T1 sequence (Q16531 with tags, fused parts or gaps DEL396-708 partner): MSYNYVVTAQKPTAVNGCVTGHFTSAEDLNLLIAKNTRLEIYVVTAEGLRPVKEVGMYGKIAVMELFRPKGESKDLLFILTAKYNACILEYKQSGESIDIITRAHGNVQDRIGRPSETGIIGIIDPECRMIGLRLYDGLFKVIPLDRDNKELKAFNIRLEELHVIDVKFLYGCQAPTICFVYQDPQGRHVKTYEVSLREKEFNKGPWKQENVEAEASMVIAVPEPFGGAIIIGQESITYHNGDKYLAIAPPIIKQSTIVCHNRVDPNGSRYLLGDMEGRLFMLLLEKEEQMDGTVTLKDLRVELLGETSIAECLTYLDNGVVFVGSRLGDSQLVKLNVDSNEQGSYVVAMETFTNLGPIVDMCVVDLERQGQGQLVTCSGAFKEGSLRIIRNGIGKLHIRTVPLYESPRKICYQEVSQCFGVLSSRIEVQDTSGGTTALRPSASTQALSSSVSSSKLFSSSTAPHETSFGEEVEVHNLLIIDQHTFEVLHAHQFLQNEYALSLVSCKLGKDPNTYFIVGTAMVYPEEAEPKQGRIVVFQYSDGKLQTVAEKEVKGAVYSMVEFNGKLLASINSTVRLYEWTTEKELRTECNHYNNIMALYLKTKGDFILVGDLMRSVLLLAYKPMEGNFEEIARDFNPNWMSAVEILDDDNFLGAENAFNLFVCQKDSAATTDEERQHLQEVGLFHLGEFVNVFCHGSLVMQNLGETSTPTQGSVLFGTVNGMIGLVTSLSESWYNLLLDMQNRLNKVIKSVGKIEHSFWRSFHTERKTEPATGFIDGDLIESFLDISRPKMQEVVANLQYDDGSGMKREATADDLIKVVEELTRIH

Structure (SMILES) | IC50 [1] [nM] | EC50 [2] [nM]
Cn1cc(S(=O)(=O)Nc2cccc3c(Cl)c[nH]c23)cn1 [Compound 1, N-(3-chloro-1H-indol-7-yl)-1-methyl-1H-pyrazole-4-sulfonamide] | < 250 | 250 to 1000
O=S(=O)(Nc1cccc2c(Cl)c[nH]c12)c1cnn(C(F)F)c1 [Compound 6, N-(3-chloro-1H-indol-7-yl)-1-(difluoromethyl)pyrazole-4-sulfonamide] | < 250 | 250 to 1000
O=S(=O)(Nc1cccc2c(Cl)c[nH]c12)c1cnn(CC(F)F)c1 [Compound 7, N-(3-chloro-1H-indol-7-yl)-1-(2,2-difluoroethyl)pyrazole-4-sulfonamide] | < 250 | 250 to 1000
CS(=O)(=O)CCn1cc(S(=O)(=O)Nc2cccc3c(Cl)c[nH]c23)cn1 [Compound 9, N-(3-chloro-1H-indol-7-yl)-1-(2-methylsulfonylethyl)pyrazole-4-sulfonamide] | < 250 | 250 to 1000
Cc1ccc(NS(=O)(=O)c2cnn(C(F)F)c2)c2[nH]cc(C#N)c12 [Compound 11, N-(3-cyano-4-methyl-1H-indol-7-yl)-1-(difluoromethyl)pyrazole-4-sulfonamide] | < 250 | 250 to 1000
CC(C)(C)OC(=O)N1CC(n2cc(S(=O)(=O)Nc3cccc4c(Cl)c[nH]c34)cn2)C1 [Compound 12, tert-butyl 3-[4-[(3-chloro-1H-indol-7-yl)sulfamoyl]pyrazol-1-yl]azetidine-1-carboxylate] | < 250 | 250 to 1000
O=S(=O)(Nc1cccc2c(Cl)c[nH]c12)c1cnn(CCO)c1 [Compound 13, N-(3-chloro-1H-indol-7-yl)-1-(2-hydroxyethyl)pyrazole-4-sulfonamide] | < 250 | 250 to 1000
N#CCn1cc(S(=O)(=O)Nc2cccc3c(Cl)c[nH]c23)cn1 [Compound 14, N-(3-chloro-1H-indol-7-yl)-1-(cyanomethyl)pyrazole-4-sulfonamide] | < 250 | > 1000
O=S(=O)(Nc1cccc2c(Cl)c[nH]c12)c1cnn(-c2ncc(Cl)cc2F)c1 [Compound 15, 1-(5-chloro-3-fluoro-2-pyridyl)-N-(3-chloro-1H-indol-7-yl)pyrazole-4-sulfonamide] | < 250 | > 1000
NC(=O)Cn1cc(S(=O)(=O)Nc2cccc3c(Cl)c[nH]c23)cn1 [Compound 16, 2-[4-[(3-chloro-1H-indol-7-yl)sulfamoyl]pyrazol-1-yl]acetamide] | < 250 | 250 to 1000
NC(=O)Cn1cc(S(=O)(=O)n2cc(S(=O)(=O)Nc3cccc4c(Cl)c[nH]c34)cn2)cn1 [Compound 17, 2-[4-[4-[(3-chloro-1H-indol-7-yl)sulfamoyl]pyrazol-1-yl]sulfonylpyrazol-1-yl]acetamide] | < 250 | 250 to 1000
O=S(=O)(Nc1cccc2c(Cl)c[nH]c12)c1cnn(C2CNC2)c1 [Compound 18, 1-(azetidin-3-yl)-N-(3-chloro-1H-indol-7-yl)pyrazole-4-sulfonamide] | 250 to 1000 | > 1000
O=S(=O)(Nc1cccc2c(Cl)c[nH]c12)c1cnn(S(=O)(=O)c2cn[nH]c2)c1 [Compound 19, N-(3-chloro-1H-indol-7-yl)-1-(1H-pyrazol-4-ylsulfonyl)pyrazole-4-sulfonamide] | < 250 | 250 to 1000
O=S(=O)(Nc1cccc2c(Cl)c[nH]c12)c1cnn(C2CCOCC2)c1 [Compound 20, N-(3-chloro-1H-indol-7-yl)-1-tetrahydropyran-4-yl-pyrazole-4-sulfonamide] | 250 to 1000 | > 1000
O=S(=O)(Nc1cccc2c(Cl)c[nH]c12)c1cnn(-c2ccc(F)cn2)c1 [Compound 21, N-(3-chloro-1H-indol-7-yl)-1-(5-fluoro-2-pyridyl)pyrazole-4-sulfonamide] | 250 to 1000 | > 1000
N#Cc1cc(C(F)(F)F)ccc1-n1cc(S(=O)(=O)Nc2cccc3c(Cl)c[nH]c23)cn1 [Compound 22, N-(3-chloro-1H-indol-7-yl)-1-[2-cyano-4-(trifluoromethyl)phenyl]pyrazole-4-sulfonamide] | > 1000 | > 1000
COCCOCCn1cc(S(=O)(=O)Nc2cccc3c(Cl)c[nH]c23)cn1 [Compound 23, N-(3-chloro-1H-indol-7-yl)-1-[2-(2-methoxyethoxy)ethyl]pyrazole-4-sulfonamide] | < 250 | > 1000
COCCOCCOCCn1cc(S(=O)(=O)Nc2cccc3c(Cl)c[nH]c23)cn1 [Compound 24, N-(3-chloro-1H-indol-7-yl)-1-[2-[2-(2-methoxyethoxy)ethoxy)ethyl]pyrazole-4-sulfonamide] | 250 to 1000 | > 1000
Cc1ccc(NS(=O)(=O)c2cnn(CCO)c2)c2[nH]cc(C#N)c12 [Compound 25, N-(3-cyano-4-methyl-1H-indol-7-yl)-1-(2-hydroxyethyl)-1H-pyrazole-4-sulfonamide] | < 250 | 250 to 1000
CC(C)(C)OC(=O)N1CCC(n2cc(S(=O)(=O)Nc3cccc4c(Cl)c[nH]c34)cn2)CC1 [Compound 26, tert-butyl 4-[4-[(3-chloro-1H-indol-7-yl)sulfamoyl]pyrazol-1-yl]piperidine-1-carboxylate] | < 250 | > 1000
CC(=O)N1CC(n2cc(S(=O)(=O)Nc3cccc4c(Cl)c[nH]c34)cn2)C1 [Compound 27, 1-(1-acetylazetidin-3-yl)-N-(3-chloro-1H-indol-7-yl)pyrazole-4-sulfonamide] | < 250 | > 1000
CC1(Cn2cc(S(=O)(=O)Nc3cccc4c(Cl)c[nH]c34)cn2)COC1 [Compound 28, N-(3-chloro-1H-indol-7-yl)-1-[(3-methyloxetan-3-yl)methyl]pyrazole-4-sulfonamide] | < 250 | 250 to 1000
Cc1ccc(NS(=O)(=O)c2cnn(C3CCOC3)c2)c2[nH]cc(C#N)c12 (centres unmarked) [Compound 29, N-(3-cyano-4-methyl-1H-indol-7-yl)-1-tetrahydrofuran-3-yl-pyrazole-4-sulfonamide] | < 250 | 250 to 1000
O=S(=O)(Nc1cccc2c(Cl)c[nH]c12)c1cnn(-c2ccc(C(F)(F)F)cn2)c1 [Compound 30, N-(3-chloro-1H-indol-7-yl)-1-[5-(trifluoromethyl)-2-pyridyl]pyrazole-4-sulfonamide] | > 1000 | > 1000
Cc1ccc(NS(=O)(=O)c2cnn(-c3ccc(C(F)(F)F)cn3)c2)c2[nH]cc(C#N)c12 [Compound 31, N-(3-cyano-4-methyl-1H-indol-7-yl)-1-[5-(trifluoromethyl)-2-pyridyl]pyrazole-4-sulfonamide] | < 250 | > 1000
COC(Cn1cc(S(=O)(=O)Nc2cccc3c(Cl)c[nH]c23)cn1)OC [Compound 32, N-(3-chloro-1H-indol-7-yl)-1-(2,2-dimethoxyethyl)pyrazole-4-sulfonamide] | < 250 | 250 to 1000
CC(C)(C)OC(=O)NCCn1cc(S(=O)(=O)Nc2cccc3c(Cl)c[nH]c23)cn1 [Compound 33, tert-butyl N-[2-[4-[(3-chloro-1H-indol-7-yl)sulfamoyl]pyrazol-1-yl]ethyl]carbamate] | 250 to 1000 | > 1000
NCCn1cc(S(=O)(=O)Nc2cccc3c(Cl)c[nH]c23)cn1 [Compound 34, 1-(2-aminoethyl)-N-(3-chloro-1H-indol-7-yl)pyrazole-4-sulfonamide] | < 250 | > 1000
